This note sets out measurements from patent US12522601B2, “1,3,4-oxadiazole derivative compounds as histone deacetylase 6 inhibitor, and the pharmaceutical composition comprising the same” (CHONG KUN DANG PHARMACEUTICAL CORP., priority 2020, dated 2026).

Some results are limits rather than exact numbers.

In one assay the target is T1, human recombinant HDAC1 (Homo sapiens, UniProt Q13547).
T1 construct: purchased Enzo Life Sciences, Inc. BML-SE456
Briefly: In vitro HDAC enzyme activity inhibition assay, HDAC1 (HDAC Fluorimetric Drug Discovery Kit). It is filed as biochemical. The note with it: human recombinant HDAC1, Fluor de Lys-SIRT1 substrate 10 μM, 30° C. for 60 minutes. Put shortly:
(§1)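 Both HDAC1 and HDAC6 (human recombinant, 0.3 μg) tested identically: 10 μM fluorogenic Fluor de Lys-SIRT1 substrate, reaction 60 min at 30° C, developer added for 30 min. IC50 calculated from Ex 360/Em 460 signal over 5-fold serial dilutions.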

Another assay has as its target T2, human recombinant HDAC6 (Homo sapiens, UniProt Q9UBN7).
T2 construct: purchased Calbiochem Inc. 382180
T2 sequence (Q9UBN7 1-1215): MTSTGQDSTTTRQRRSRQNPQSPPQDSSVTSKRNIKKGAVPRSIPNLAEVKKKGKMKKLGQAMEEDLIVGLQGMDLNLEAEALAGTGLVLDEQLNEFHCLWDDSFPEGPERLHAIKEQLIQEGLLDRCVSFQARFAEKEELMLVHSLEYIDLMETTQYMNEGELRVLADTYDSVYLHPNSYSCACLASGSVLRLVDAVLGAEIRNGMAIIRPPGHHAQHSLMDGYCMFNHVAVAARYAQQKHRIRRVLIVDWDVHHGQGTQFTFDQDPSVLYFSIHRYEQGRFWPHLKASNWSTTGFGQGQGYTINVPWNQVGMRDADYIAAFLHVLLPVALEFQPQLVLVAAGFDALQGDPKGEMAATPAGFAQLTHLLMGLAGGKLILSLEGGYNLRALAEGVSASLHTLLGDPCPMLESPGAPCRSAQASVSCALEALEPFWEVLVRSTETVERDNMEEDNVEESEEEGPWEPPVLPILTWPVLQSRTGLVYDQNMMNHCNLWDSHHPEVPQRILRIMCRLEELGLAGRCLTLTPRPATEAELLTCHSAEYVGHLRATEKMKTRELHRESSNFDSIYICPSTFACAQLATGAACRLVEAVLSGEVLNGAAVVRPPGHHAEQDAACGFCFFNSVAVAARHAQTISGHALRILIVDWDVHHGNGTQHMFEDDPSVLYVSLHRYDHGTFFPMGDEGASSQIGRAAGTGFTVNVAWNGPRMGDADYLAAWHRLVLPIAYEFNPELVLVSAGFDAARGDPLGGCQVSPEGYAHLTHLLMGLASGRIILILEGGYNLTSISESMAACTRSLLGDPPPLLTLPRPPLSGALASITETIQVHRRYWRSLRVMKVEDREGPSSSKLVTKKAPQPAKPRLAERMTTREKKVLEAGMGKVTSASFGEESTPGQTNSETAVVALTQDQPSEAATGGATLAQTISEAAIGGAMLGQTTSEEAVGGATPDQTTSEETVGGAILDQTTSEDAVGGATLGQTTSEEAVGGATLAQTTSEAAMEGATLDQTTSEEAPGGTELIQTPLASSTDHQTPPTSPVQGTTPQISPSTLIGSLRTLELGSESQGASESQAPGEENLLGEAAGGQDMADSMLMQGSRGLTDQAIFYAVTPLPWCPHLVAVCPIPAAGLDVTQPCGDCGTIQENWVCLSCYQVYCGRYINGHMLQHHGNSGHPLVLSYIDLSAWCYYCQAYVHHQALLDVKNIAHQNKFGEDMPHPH
Put plainly: In vitro HDAC enzyme activity inhibition assay, HDAC6 (HDAC Fluorimetric Drug Discovery Kit). It is filed as biochemical. Conditions: for HDAC6 Selectivity (fold): HDAC6 versus HDAC1; for IC50: human recombinant HDAC6, same protocol as the HDAC1 test. Put shortly: as §1

T1 sequence (Q13547 whole entry): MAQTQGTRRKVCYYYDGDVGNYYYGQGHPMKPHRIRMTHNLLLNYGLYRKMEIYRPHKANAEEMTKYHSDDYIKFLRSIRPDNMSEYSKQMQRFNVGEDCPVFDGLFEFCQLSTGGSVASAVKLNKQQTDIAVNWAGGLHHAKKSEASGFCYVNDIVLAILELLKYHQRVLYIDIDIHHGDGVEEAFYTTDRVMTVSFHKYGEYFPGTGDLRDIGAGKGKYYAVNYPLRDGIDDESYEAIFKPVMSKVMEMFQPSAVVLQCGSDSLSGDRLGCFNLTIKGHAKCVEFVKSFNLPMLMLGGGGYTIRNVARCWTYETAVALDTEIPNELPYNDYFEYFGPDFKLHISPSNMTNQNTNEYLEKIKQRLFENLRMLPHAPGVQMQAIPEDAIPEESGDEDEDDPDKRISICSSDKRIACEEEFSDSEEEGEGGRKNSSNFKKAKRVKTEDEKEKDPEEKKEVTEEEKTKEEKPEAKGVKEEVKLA

One may read the IC50 as the concentration at which inhibition is half-maximal. For `Fc1ccc(OCc2cn3ccc(-c4nnc(C(F)F)o4)cc3n2)cc1F` [Compound 3723, 2-(difluoromethyl)-5-(2-((3,4-difluorophenoxy)methyl)imidazo[1,2-a]pyridin-7-yl)-1,3,4-oxadiazole], the IC50 on human recombinant HDAC1 was greater than 50000 nM; at human recombinant HDAC6, 240 nM. Also, the “HDAC6 Selectivity (fold)” value at human recombinant HDAC6 came to 174 fold.

With `COC(=O)N1CCN(C(=O)N(Cc2cn3ccc(-c4nnc(C(F)F)o4)cc3n2)c2cccc(F)c2)CC1` [Compound 4098, methyl 4-(((7-(5-(difluoromethyl)-1,3,4-oxadiazol-2-yl)imidazo[1,2-a]pyridin-2-yl)methyl)(3-fluorophenyl)carbamoyl)piperazine-1-carboxylate], the IC50 at human recombinant HDAC1 is greater than 50000 nM. Further, at human recombinant HDAC6, the “HDAC6 Selectivity (fold)” value turned out to be 325 fold and the IC50 amounted to 154 nM.

`O=C(C1CCC1)N1CC(C(=O)N(Cc2cn3ccc(-c4nnc(C(F)F)o4)cc3n2)c2cccc(F)c2)C1` [Compound 4200, 1-(cyclobutanecarbonyl)-N-((7-(5-(difluoromethyl)-1,3,4-oxadiazol-2-yl)imidazo[1,2-a]pyridine-2-yl)methyl)-N-(3-fluorophenyl) azetidine-3-carboxamide]: the results for the IC50 at human recombinant HDAC1 and at human recombinant HDAC6 were greater than 50000 nM and 220 nM, respectively. In addition, the “HDAC6 Selectivity (fold)” value on human recombinant HDAC6 is 228 fold.

Take `O=C(C1CN(C2CCC(F)(F)CC2)C1)N(Cc1cn2ccc(-c3nnc(C(F)F)o3)cc2n1)c1ccccc1` [Compound 4166, 1-(4,4-difluorocyclohexyl)-N-((7-(5-(difluoromethyl)-1,3,4-oxadiazol-2-yl)imidazo[1,2-a]pyridin-2-yl)methyl)-N-phenylazetidine-3-carboxamide]: at human recombinant HDAC1, the IC50 is greater than 50000 nM. Also, at human recombinant HDAC6, the “HDAC6 Selectivity (fold)” value was determined as 197 fold and the IC50 turned out to be 254 nM.

Turning to `CS(=O)(=O)c1ccc(NCc2cn3ccc(-c4nnc(C(F)F)o4)cc3n2)cc1` [Compound 3674, N-((7-(5-(difluoromethyl)-1,3,4-oxadiazol-2-yl)imidazo[1,2-a]pyridin-2-yl)methyl)-4-(methylsulfonyl)aniline], the IC50 at human recombinant HDAC1 was greater than 50000 nM. At human recombinant HDAC6, the “HDAC6 Selectivity (fold)” value worked out at 128 fold and the half-inhibitory concentration (IC50) is 391 nM.

Take `FC(F)c1nnc(-c2ccn3cc(Cc4ccc(Cl)cc4)nc3c2)o1` [Compound 3593, 2-(2-(4-chlorobenzyl)imidazo[1,2-a]pyridin-7-yl)-5-(difluoromethyl)-1,3,4-oxadiazole]: the IC50 is greater than 50000 nM at human recombinant HDAC1 and 261 nM at human recombinant HDAC6. Besides, on human recombinant HDAC6, the “HDAC6 Selectivity (fold)” value is reported as 191 fold.

In the case of `CN(C)C(=O)N1CCN(C(=O)N(Cc2cn3ccc(-c4nnc(C(F)F)o4)cc3n2)c2cccc(F)c2)CC1` [Compound 4099, N1-((7-(5-(difluoromethyl)-1,3,4-oxadiazol-2-yl)imidazo[1,2-a]pyridin-2-yl)methyl)-N1-(3-fluorophenyl)-N4,N4-dimethylpiperazine-1,4-dicarboxamide], the results for the IC50 at human recombinant HDAC1 and on human recombinant HDAC6 were greater than 50000 nM and 139 nM, respectively. The “HDAC6 Selectivity (fold)” value at human recombinant HDAC6 is 360 fold.

In the case of `O=C(C1CN(c2ccccn2)C1)N(Cc1cn2ccc(-c3nnc(C(F)F)o3)cc2n1)c1cccc(F)c1` [Compound 4206, N-((7-(5-(difluoromethyl)-1,3,4-oxadiazol-2-yl)imidazo[1,2-a]pyridin-2-yl)methyl)-N-(3-fluorophenyl)-1-(pyridin-2-yl) azetidine-3-carboxamide], the figures for the IC50 on human recombinant HDAC1 and at human recombinant HDAC6 were greater than 50000 nM and 138 nM, respectively. The “HDAC6 Selectivity (fold)” value on human recombinant HDAC6 was 361 fold.

As for `O=C(CO)N1CC(C(=O)N(Cc2cn3ccc(-c4nnc(C(F)F)o4)cc3n2)c2ccccc2)C1` [Compound 4169, N-((7-(5-(difluoromethyl)-1,3,4-oxadiazol-2-yl)imidazo[1,2-a]pyridin-2-yl)methyl)-1-(2-hydroxyacetyl)-N-phenylazetidine-3-carboxamide], at human recombinant HDAC1, the IC50 was greater than 50000 nM. Also, on human recombinant HDAC6, the “HDAC6 Selectivity (fold)” value is listed as 61 fold and the IC50 was determined as 815 nM.

Take `O=C(CO)N1CCC(C(=O)N(Cc2cn3ccc(-c4nnc(C(F)F)o4)cc3n2)c2cccc(F)c2)CC1` [Compound 4149, N-((7-(5-(difluoromethyl)-1,3,4-oxadiazol-2-yl)imidazo[1,2-a]pyridin-2-yl)methyl)-N-(3-fluorophenyl)-1-(2-hydroxyacetyl)piperidine-4-carboxamide]: the IC50 at human recombinant HDAC1 was greater than 50000 nM; at human recombinant HDAC6, 149 nM. The “HDAC6 Selectivity (fold)” value at human recombinant HDAC6 was 335 fold.

For the molecule `CCC(=O)N1CCN(C(=O)N(Cc2cn3ccc(-c4nnc(C(F)F)o4)cc3n2)c2ccccc2)CC1` [Compound 4041, N-((7-(5-(difluoromethyl)-1,3,4-oxadiazol-2-yl)imidazo[1,2-a]pyridin-2-yl)methyl)-N-phenyl-4-propionylpiperazine-1-carboxamide], at human recombinant HDAC1, the IC50 was greater than 50000 nM. In addition, on human recombinant HDAC6, the “HDAC6 Selectivity (fold)” value was determined as 193 fold and the IC50 was determined as 259 nM.

As for `O=C(N1CCN(C2CC3(COC3)C2)CC1)N(Cc1cn2ccc(-c3nnc(C(F)F)o3)cc2n1)c1cccc(F)c1` [Compound 4621], the IC50 on human recombinant HDAC1 was greater than 50000 nM. Moreover, at human recombinant HDAC6, the “HDAC6 Selectivity (fold)” value is 326 fold and the IC50 came to 153 nM.

For `O=C(C1CCN(C2CCOCC2)CC1)N(Cc1cn2ccc(-c3nnc(C(F)F)o3)cc2n1)c1cccc(F)c1` [Compound 4144, N-((7-(5-(difluoromethyl)-1,3,4-oxadiazol-2-yl)imidazo[1,2-a]pyridin-2-yl)methyl)-N-(3-fluorophenyl)-1-(tetrahydro-2H-pyran-4-yl)piperidine-4-carboxamide], the IC50 on human recombinant HDAC1 was greater than 50000 nM. At human recombinant HDAC6, the “HDAC6 Selectivity (fold)” value amounted to 206 fold and the IC50 is 243 nM.

Regarding `CCN1CCN(C(=O)N(Cc2cn3ccc(-c4nnc(C(F)F)o4)cc3n2)c2cccc(F)c2)CC1` [Compound 4084, N-((7-(5-(difluoromethyl)-1,3,4-oxadiazol-2-yl)imidazo[1,2-a]pyridin-2-yl)methyl)-4-ethyl-N-(3-fluorophenyl)piperazine-1-carboxamide], on human recombinant HDAC1, the IC50 is greater than 50000 nM. Besides, on human recombinant HDAC6, the “HDAC6 Selectivity (fold)” value turned out to be 183 fold and the IC50 was 273 nM.

Take `Fc1cccc(OCc2cn3ccc(-c4nnc(C(F)F)o4)cc3n2)c1` [Compound 3722, 2-(difluoromethyl)-5-(2-((3-fluorophenoxy)methyl)imidazo[1,2-a]pyridin-7-yl)-1,3,4-oxadiazole]: the values for the IC50 on human recombinant HDAC1 and on human recombinant HDAC6 were greater than 50000 nM and 287 nM, respectively. The “HDAC6 Selectivity (fold)” value at human recombinant HDAC6 is recorded as 174 fold.

With `CS(=O)(=O)N1CCN(C(=O)N(Cc2cn3ccc(-c4nnc(C(F)F)o4)cc3n2)c2ccccc2)CC1` [Compound 4045, N-((7-(5-(difluoromethyl)-1,3,4-oxadiazol-2-yl)imidazo[1,2-a]pyridin-2-yl)methyl)-4-(methylsulfonyl)-N-phenylpiperazine-1-carboxamide], the IC50 on human recombinant HDAC1 was greater than 50000 nM. On human recombinant HDAC6, the “HDAC6 Selectivity (fold)” value was found to be 392 fold and the IC50 was found to be 128 nM.

For `COC(=O)N1CC(C(=O)N(Cc2cn3ccc(-c4nnc(C(F)F)o4)cc3n2)c2ccccc2)C1` [Compound 4174, methyl 3-(((7-(5-(difluoromethyl)-1,3,4-oxadiazol-2-yl)imidazo[1,2-a]pyridin-2-yl)methyl)(phenyl)carbamoyl) azetidine-1-carboxylate], the half-inhibitory concentration (IC50) on human recombinant HDAC1 was greater than 50000 nM. Moreover, on human recombinant HDAC6, the “HDAC6 Selectivity (fold)” value came out at 168 fold and the IC50 amounted to 298 nM.

For the molecule `CC(C)N1CCC(C(=O)N(Cc2cn3ccc(-c4nnc(C(F)F)o4)cc3n2)c2cccc(F)c2)CC1` [Compound 4139, N-((7-(5-(difluoromethyl)-1,3,4-oxadiazol-2-yl)imidazo[1,2-a]pyridin-2-yl)methyl)-N-(3-fluorophenyl)-1-isopropylpiperidine-4-carboxamide], the IC50 at human recombinant HDAC1 was greater than 50000 nM. Further, on human recombinant HDAC6, the “HDAC6 Selectivity (fold)” value is reported as 403 fold and the IC50 is 124 nM.
